Assay: Dynamic in-vivo fluorescence imaging of dye biodistribution after tail vein injection
Design: species or system mouse
Source text: FIG. 1 illustrates one embodiment of a fluorescent dynamic optical imaging system 10 for imaging small animals such as mice. The imaging system 10 includes an optical detector 16 which is operable to acquire various images of the mouse. The imaging system 10 also includes a processor and display device 11 which is operable to generate and display other images of the mouse.
The system 10 also includes an imaging platform 12 for supporting a mouse in a desired arrangement, such as in a prone position or a supine position. In a preferred embodiment, mirrors 14 are arranged at 45 degree angles with respect to the imaging platform such that multiple views of the mouse, i.e., a top and/or bottom view, and side views of the mouse, are within the field of view of the optical detector 16, which is arranged above the imaging platform 12. Other embodiments can include other arrangements of optical detector 16 and mirrors to provide other views of the mouse. In one embodiment, the optical detector 16 is a cooled 14 bit charge coupled device (CCD) camera including a relay lens 19 and the field of view is approximately 9 cm by 9 cm. Thus, although the camera produces 2D images, these are “enhanced” 2D images since multiple views of the mouse are obtained.
Bifurcated liquid light guides 25 can be used to deliver light from the sources 18A, 18B to shine on the mouse. Other means can also be used. The light sources 18A, 18B and any corresponding filter elements are selected to have desired characteristics according to the optical contrast substances to be used in the imaging process. For example, when using a fluorescent dye such as indocyanine green (ICG) dye, light source 18A can include two laser diodes (160 mW total) to provide excitation light at 785 nm to excite the ICG dye. When using a fluorescent dye such as Dextran Texas Red dye, light source 18B can be a halogen light source, and a motorized filter wheel having a plurality of filter elements can be used to provide filtered light at a desired excitation wavelength range of 570 nm plus or minus 20 nm to excite the Dextran Texas Red dye. The respective light sources can be controlled by an electronic shutter in the 570 nm light path, or digital modulation of the laser diodes to allow synchronization of illumination with the filter elements, tunable filter, and image acquisition.
At process block 34, a second optical contrast substance is introduced or activated in the mouse. For example, a dye such as an ICG dye or a Dextran Texas Red dye can be used and can be injected into the tail vein of an anesthetized mouse. ICG dye is a good choice because it is widely available, clinically approved, and it excites and emits in the near infra-red (NIR) portion of the spectrum, which is advantageous in that light scatter is lower and penetration is higher at NIR wavelengths. In one embodiment, a dye consisting of 0.05 ml of 260 uM ICG dye (Cardiogreen, Fluka) is used. In another embodiment, […] of 360 uM of Dextran Texas Red dye (70,000 MW, Invitrogen) can be used.
At process block 38, a time series of anatomical image data sets of the second optical contrast substance is acquired using the optical detector, preferably while the animal is in the same desired arrangement. This should preferably be performed right after the second optical contrast is introduced. If the second optical contrast agent is a fluorescent dye, a light source having the appropriate spectral characteristics is applied to excite the fluorescent dye. […]

CC1(C)C(/C=C/C=C/C=C/C=C2\N(CCCCS(=O)(=O)O)c3ccc4ccccc4c3C2(C)C)=[N+](CCCCS(=O)(=O)[O-])c2ccc3ccccc3c21 [ICG, indocyanine green]
uptake by adipose tissue (mouse, longer timescales (25 minutes), preliminary data): late uptake by adipose tissue, remaining high after 25 minutes | uptake by the liver (mouse, longer timescales, preliminary data): rapid and sustained uptake by the liver | distribution of dye in the body (prone mouse, by 117 seconds after injection): distributed fairly diffusely throughout the mouse | fluorescence signal, next organ distribution (prone mouse, tail vein injection, early images (first 15 seconds), after the lung phase): bright signal is seen in the brain, kidneys, spleen and spine | fluorescence signal, initial organ distribution (prone mouse, tail vein injection, early images (first 15 seconds), initial circulation): initially the lungs are bright

Reference: patent US9220411B2, “In-vivo optical imaging method including analysis of dynamic images” (THE GENERAL HOSPITAL CORPORATION, priority 2006, dated 2015)
